ChEMBL document CHEMBL3132791, “Improved synthesis of 4-/6-substituted 2-carboxy-1H-indole-3-propionic acid derivatives and structureactivity relationships as GPR17 agonists” (Medchemcomm, 2014)
Activity calls are given as the source filed them. The calls are words filed in the database; no cut-off is given here.

Legend:
[1] = target: T1, Uracil nucleotide/cysteinyl leukotriene receptor (Homo sapiens, UniProt Q13304); assay: Agonist activity at human GPR17 receptor transfected in 1321N1 astrocytoma cells assessed as induction of intracellular calcium mobilization by fluorimetric assay; type: functional, cell-based
[2] = target: T1, Uracil nucleotide/cysteinyl leukotriene receptor; assay: Antagonist activity at human GPR17 receptor transfected in 1321N1 astrocytoma cells assessed as intracellular calcium mobilization by flurometric assay; type: functional, cell-based

T1 sequence (Q13304 whole entry): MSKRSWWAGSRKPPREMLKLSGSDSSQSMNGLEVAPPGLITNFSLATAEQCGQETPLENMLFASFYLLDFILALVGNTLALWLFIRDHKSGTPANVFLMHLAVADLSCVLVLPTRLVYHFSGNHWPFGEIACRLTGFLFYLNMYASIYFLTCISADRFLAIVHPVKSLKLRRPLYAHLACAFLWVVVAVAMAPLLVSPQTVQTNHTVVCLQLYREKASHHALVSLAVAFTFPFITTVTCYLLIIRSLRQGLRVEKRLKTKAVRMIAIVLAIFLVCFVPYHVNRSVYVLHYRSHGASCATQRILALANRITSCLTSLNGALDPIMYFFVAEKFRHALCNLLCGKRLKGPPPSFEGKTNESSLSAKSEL

EC50 [1]	Activity [2]	Compound
0.331 µM	–	O=C(O)CCc1c(C(=O)O)[nH]c2cc(Cl)cc(Cl)c12
0.202 µM	–	O=C(O)CCc1c(C(=O)O)[nH]c2cc(Br)cc(Br)c12
36.8 µM	–	O=C(O)CCc1c(C(=O)O)[nH]c2cccc(I)c12
> 100 µM	inactive	COc1cc(OC)c2c(CCC(=O)O)c(C(=O)O)[nH]c2c1
45.5 µM	–	O=C(O)CCc1c(C(=O)O)[nH]c2cccc(Br)c12
17.1 µM	–	O=C(O)CCc1c(C(=O)O)[nH]c2cc(C(F)(F)F)cc(C(F)(F)F)c12
2.24 µM	–	O=C(O)CCc1c(C(=O)O)[nH]c2cc(Br)ccc12
52 µM	–	O=C(O)CCc1c(C(=O)O)[nH]c2cc(Cl)c(F)c(Cl)c12
